For assay [1], the system named is T-Rex 293 cell line SC3 cells having increased expression of androgen receptor protein due to exposure to doxycycline. In words: Cellular growth inhibition, T-Rex 293 SC3 cells with doxycycline (increased androgen receptor expression), CellTiter-Glo. As to conditions: T-Rex 293 SC3 cells with 10 ng/mL doxycycline (increased androgen receptor expression), 72 hours, CellTiter-Glo 2.0. The assay is classed as cell-based. A digest of the protocol: (§1)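 Growth inhibition is measured in an inducible AR-expressing T-Rex 293 clone, SC3, cultured with or without 10 ng/mL doxycycline in hormone-depleted medium. Test compounds are applied for 72 hours. GI50 values derive from CellTiter-Glo 2.0 signal fitted by four-parameter regression.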
(In general: Cellular ATP, detected with luciferase, serves as a proxy for viable cell number.)

The test system of a further assay is T47D cells. In words: Cellular Growth Inhibition Assay for T47D Cells (CellTiter-Glo). Particulars: 72 hours. The assay is classed as cell-based, human. Summed up:
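GI50 values derive from four-parameter regression of CellTiter-Glo 2.0 luminescence, using zero luminescence as baseline. Human breast cancer T47D cells (3000/well; DMEM, 10% FBS, 0.2 units/mL insulin) were exposed for 72 h to compound dilutions at 0.5% DMSO, with dosing starting 24 h after seeding.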

The test system of assay [2] is T-Rex 293 cell line SC3 cells lacking increased expression of androgen receptor protein. In words: Cellular growth inhibition, T-Rex 293 SC3 cells without doxycycline (no increased androgen receptor expression), CellTiter-Glo. The class given is cell-based. Particulars: T-Rex 293 SC3 cells not exposed to doxycycline (no increased androgen receptor expression), 72 hours. A digest of the protocol:
as §1

In the next assay the test system is VCaP cells. Put plainly: Cellular growth inhibition assay for VCaP cells, CellTiter-Glo. The assay is classed as cell-based, human. Particulars: 72 hours. A digest of the protocol:
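GI50 values come from four-parameter curve fits of luminescence data normalized to a zero baseline. Compound, in medium with 0.5% DMSO, was added one day after plating and left for 72 h before CellTiter-Glo 2.0 addition.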

Each structure is given as a SMILES string.

Usually GI50 stands for the concentration at which growth is held to half of that of the control. On to `Cn1cc(-c2cc(C(C)(C)O)ccc2OC(CCCOC2CCN(c3ncc(C(=O)N[C@H]4C(C)(C)[C@H](Oc5ccc(C#N)c(Cl)c5)C4(C)C)cn3)CC2)C2CC2)c2cc[nH]c2c1=O` (stereo partly drawn) [Compound I-244], for which the GI50 in assay [1] is less than 500 nM; in the assay on T47D cells, 500 to 1500 nM; in assay [2], 500 to 1500 nM; with VCaP cells, less than 500 nM.
Consider `CCS(=O)(=O)c1ccc(Oc2ccc(CC3CCN(c4ncc(C(=O)N[C@H]5C(C)(C)[C@H](Oc6ccc(C#N)c(Cl)c6)C5(C)C)cn4)CC3)c(F)c2)c(-c2cn(C)c(=O)c3[nH]ccc23)c1` [Compound I-278], for which the GI50 in assay [1] was less than 500 nM; in the assay with T47D cells (Homo sapiens), less than 500 nM; in assay [2] it was more than 3000 nM; with VCaP cells (Homo sapiens) it was less than 500 nM.
Take `Cn1cc(-c2cc(C(C)(C)O)ccc2Oc2ccc(N3CC4(C3)CN(c3ncc(C(=O)N[C@H]5C(C)(C)[C@H](Oc6ccc(C#N)c(Cl)c6)C5(C)C)cn3)C4)cc2)c2cc[nH]c2c1=O` [Compound I-330]: the GI50 (in assay [1]; in the assay with T47D cells; in assay [2]; in the assay with VCaP cells) was less than 500 nM throughout.
On to `Cn1cc(-c2cc(C(C)(C)O)ccc2O[C@H]2C[C@H](CCC3CCN(c4ncc(C(=O)N[C@H]5C(C)(C)[C@H](Oc6ccc(C#N)c(Cl)c6)C5(C)C)cn4)CC3)C2)c2cc[nH]c2c1=O` [Compound I-310], for which the GI50 (in assay [1]; in the assay on T47D cells; in assay [2]; with VCaP cells) was less than 500 nM throughout.
As to `Cn1cc(-c2cc(C(C)(C)O)ccc2OC(CCCCCN2CCN(c3ncc(C(=O)NC4C(C)(C)C(Oc5ccc(C#N)c(Cl)c5)C4(C)C)cn3)CC2)C2CC2)c2cc[nH]c2c1=O` (stereo not drawn) [Compound I-243, N-[3-(3-chloro-4-cyano-phenoxy)-2,2,4,4-tetramethyl-cyclobutyl]-2-[4-[6-cyclopropyl-6-[4-(1-hydroxy-1-methyl-ethyl)-2-(6-methyl-7-oxo-1H-pyrrolo[2,3-c]pyridin-4-yl)phenoxy]hexyl]piperazin-1-yl]pyrimidine-5-carboxamide], the GI50 is less than 500 nM in assay [1], 500 to 1500 nM with T47D cells (Homo sapiens), 500 to 1500 nM in assay [2] and less than 500 nM in the assay with VCaP cells (Homo sapiens).
In the case of `CCS(=O)(=O)Nc1ccc(Oc2cccc(C3CC(N4CCN(c5ncc(C(=O)N[C@H]6C(C)(C)[C@H](Oc7ccc(C#N)c(Cl)c7)C6(C)C)cn5)CC4)C3)c2)c(-c2cn(C)c(=O)c3[nH]ccc23)c1` (stereo partly drawn) [Compound I-180], the GI50 in assay [1] is less than 500 nM; in the assay on T47D cells (Homo sapiens), less than 500 nM; in assay [2], more than 3000 nM; with VCaP cells (Homo sapiens), less than 500 nM.
As to `CC(C)c1ccc(Oc2cccc(CCOC3CCN(c4ncc(C(=O)N[C@H]5C(C)(C)[C@H](Oc6ccc(C#N)c(Cl)c6)C5(C)C)cn4)CC3)c2F)c(-c2cn(C)c(=O)c3[nH]ccc23)c1` [Compound I-148], the GI50 in assay [1] was less than 500 nM; with T47D cells it was 500 to 1500 nM; in assay [2], more than 3000 nM; with VCaP cells it was less than 500 nM.
For the compound `CCS(=O)(=O)Nc1ccc(Oc2cccc(N(C)C3CN(c4ncc(C(=O)N[C@H]5C(C)(C)[C@H](Oc6ccc(C#N)c(Cl)c6)C5(C)C)cn4)C3)c2)c(-c2cn(C)c(=O)c3[nH]ccc23)c1` [Compound I-31], the GI50 is 500 to 1500 nM in assay [1], less than 500 nM in the assay on T47D cells (Homo sapiens), less than 500 nM in assay [2] and less than 500 nM in the assay with VCaP cells (Homo sapiens).
Turning to `Cn1cc(-c2cc(C(C)(C)O)ccc2Oc2ccc(CC3CC(C4CCCN(c5ncc(C(=O)N[C@H]6C(C)(C)[C@H](Oc7ccc(C#N)c(Cl)c7)C6(C)C)cn5)C4)C3)cc2)c2cc[nH]c2c1=O` (single isomer, unassigned) [Compound I-348], the GI50 was less than 500 nM in assay [1], less than 500 nM in the assay with T47D cells, more than 3000 nM in assay [2] and less than 500 nM in the assay on VCaP cells.
Take `CCS(=O)(=O)c1ccc(OC2CC(CCN3CCC4(CCN(c5ncc(C(=O)N[C@H]6C(C)(C)[C@H](Oc7ccc(C#N)c(Cl)c7)C6(C)C)cn5)C4)C3)C2)c(-c2cn(C)c(=O)c3[nH]ccc23)c1` (stereo partly drawn) [Compound I-270, N-[3-(3-chloro-4-cyano-phenoxy)-2,2,4,4-tetramethyl-cyclobutyl]-2-[7-[2-[3-[4-ethylsulfonyl-2-(6-methyl-7-oxo-1H-pyrrolo[2,3-c]pyridin-4-yl)phenoxy]cyclobutyl]ethyl]-2,7-diazaspiro[4.4]nonan-2-yl]pyrimidine-5-carboxamide]: the 50% growth inhibitory concentration (GI50) in assay [1] is less than 500 nM; in the assay on T47D cells (Homo sapiens), less than 500 nM; in assay [2], 500 to 1500 nM; in the assay with VCaP cells (Homo sapiens), less than 500 nM.
As for `Cn1cc(-c2cc(C(C)(C)O)ccc2Oc2ccc(C3CC(N4CC5(CN(c6ncc(C(=O)N[C@H]7C(C)(C)[C@H](Oc8ccc(C#N)c(Cl)c8)C7(C)C)cn6)C5)C4)C3)cc2)c2cc[nH]c2c1=O` (stereo partly drawn) [Compound I-331], the GI50 (in assay [1]; in the assay on T47D cells; in assay [2]; in the assay on VCaP cells) was less than 500 nM throughout.
Take `Cn1cc(-c2cc(N)ccc2Oc2cccc(OCCC3CCN(c4ncc(C(=O)N[C@H]5C(C)(C)[C@H](Oc6ccc(C#N)c(Cl)c6)C5(C)C)cn4)CC3)c2F)c2cc[nH]c2c1=O` [Compound I-103]: the GI50 in assay [1] was less than 500 nM; in the assay on T47D cells (Homo sapiens), 1500 to 3000 nM; in assay [2] it was more than 3000 nM; with VCaP cells (Homo sapiens), less than 500 nM.
With `CCS(=O)(=O)Nc1ccc(Oc2cccc(N3CCN(CC4CCN(c5ncc(C(=O)N[C@H]6C(C)(C)[C@H](Oc7ccc(C#N)c(Cl)c7)C6(C)C)cn5)CC4)CC3)c2)c(-c2cn(C)c(=O)c3[nH]ccc23)c1` [Compound I-37], the GI50 in assay [1] was less than 500 nM; in the assay with T47D cells (Homo sapiens), 500 to 1500 nM; in assay [2], less than 500 nM; in the assay with VCaP cells (Homo sapiens), less than 500 nM.
In the case of `CC(C)c1ccc(Oc2cccc(N3CC(N4CCN(c5ncc(C(=O)N[C@H]6C(C)(C)[C@H](Oc7ccc(C#N)c(Cl)c7)C6(C)C)cn5)CC4)C3)c2)c(-c2cn(C)c(=O)c3[nH]ccc23)c1` [Compound I-122, N-[3-(3-chloro-4-cyano-phenoxy)-2,2,4,4-tetramethyl-cyclobutyl]-2-[4-[1-[3-[4-isopropyl-2-(6-methyl-7-oxo-1H-pyrrolo[2,3-c]pyridin-4-yl)phenoxy]phenyl]azetidin-3-yl]piperazin-1-yl]pyrimidine-5-carboxamide], the GI50 was less than 500 nM in assay [1], 500 to 1500 nM with T47D cells (Homo sapiens), more than 3000 nM in assay [2] and more than 3000 nM with VCaP cells (Homo sapiens).
For the compound `CCS(=O)(=O)Nc1ccc(Oc2cccc(N3CCC(OC4CCN(c5ncc(C(=O)N[C@H]6C(C)(C)[C@H](Oc7ccc(C#N)c(Cl)c7)C6(C)C)cn5)CC4)CC3)c2)c(-c2cn(C)c(=O)c3[nH]ccc23)c1` [Compound I-82], the 50% growth inhibitory concentration (GI50) in assay [1] was less than 500 nM; with T47D cells (Homo sapiens), less than 500 nM; in assay [2], more than 3000 nM; in the assay on VCaP cells (Homo sapiens), less than 500 nM.
For `CCS(=O)(=O)Nc1ccc(Oc2cccc(OCC3CCN(c4ncc(C(=O)N[C@H]5C(C)(C)[C@H](Oc6ccc(C#N)c(Cl)c6)C5(C)C)cn4)CC3)c2)c(-c2cn(C)c(=O)c3[nH]ccc23)c1` [Compound I-25], the GI50 (in assay [1]; in the assay on T47D cells (Homo sapiens); in assay [2]; in the assay with VCaP cells (Homo sapiens)) was less than 500 nM in each case.
Regarding `Cn1cc(-c2cc(C(C)(C)O)ccc2OCC(C)(C)CN2CC(OC3CCN(c4ncc(C(=O)NC5C(C)(C)C(Oc6ccc(C#N)c(Cl)c6)C5(C)C)cn4)CC3)C2)c2cc[nH]c2c1=O` (stereo not drawn) [Compound I-282, N-[3-(3-chloro-4-cyano-phenoxy)-2,2,4,4-tetramethyl-cyclobutyl]-2-[4-[1-[3-[4-(1-hydroxy-1-methyl-ethyl)-2-(6-methyl-7-oxo-1H-pyrrolo[2,3-c]pyridin-4-yl)phenoxy]-2,2-dimethyl-propyl]azetidin-3-yl]oxy-1-piperidyl]pyrimidine-5-carboxamide], the GI50 in assay [1] is less than 500 nM; in the assay with T47D cells (Homo sapiens) it was 500 to 1500 nM; in assay [2], 500 to 1500 nM; in the assay on VCaP cells (Homo sapiens) it was less than 500 nM.
For `Cn1cc(-c2cc(C(C)(C)O)ccc2Oc2ccc(CC3CC(C4CCCN(c5ncc(C(=O)N[C@H]6C(C)(C)[C@H](Oc7ccc(C#N)c(Cl)c7)C6(C)C)cn5)C4)C3)cc2)c2cc[nH]c2c1=O` (single isomer, unassigned) [Compound I-347], the 50% growth inhibitory concentration (GI50) in assay [1] was more than 3000 nM; with T47D cells, less than 500 nM; in assay [2], more than 3000 nM; in the assay on VCaP cells, less than 500 nM.
Regarding `Cn1cc(-c2cc(C(C)(C)O)ccc2Oc2ccc(N3CC4(CCCN(c5ncc(C(=O)N[C@H]6C(C)(C)[C@H](Oc7ccc(C#N)c(Cl)c7)C6(C)C)cn5)C4)C3)cc2)c2cc[nH]c2c1=O` [Compound I-343], the GI50 in assay [1] was less than 500 nM; in the assay with T47D cells it was less than 500 nM; in assay [2] it was more than 3000 nM; in the assay on VCaP cells, less than 500 nM.
On to `Cn1cc(-c2cc(C(C)(C)O)ccc2Oc2ccc(N3CC(CC4CCN(c5ccc(C(=O)N[C@H]6C(C)(C)[C@H](Oc7ccc(C#N)c(Cl)c7)C6(C)C)nc5)CC4)C3)cc2)c2cc[nH]c2c1=O` [Compound I-338], for which the GI50 is more than 3000 nM in assay [1], 500 to 1500 nM in the assay with T47D cells (Homo sapiens), more than 3000 nM in assay [2] and more than 3000 nM with VCaP cells (Homo sapiens).
Turning to `CCS(=O)(=O)Nc1ccc(Oc2cccc(CCC3CCN(c4ncc(C(=O)N[C@H]5C(C)(C)[C@H](Oc6ccc(C#N)c(Cl)c6)C5(C)C)cn4)CC3)c2F)c(-c2cn(C)c(=O)c3[nH]ccc23)c1` [Compound I-165], the GI50 in assay [1] was less than 500 nM; in the assay with T47D cells (Homo sapiens) it was less than 500 nM; in assay [2] it was more than 3000 nM; in the assay with VCaP cells (Homo sapiens), less than 500 nM.

Source of the values: US20250388605A1, “HETEROBIFUNCTIONAL COMPOUNDS AND METHODS OF TREATING DISEASE” (Halda Therapeutics OpCo, Inc., priority 2022, published 2025).
